In US4398937A, “Selective algaecides for control of cyanochloronta” (The University of Southern Mississippi, priority 1981, dated 1983):

Key:
Haematococcus = assay: Selective effect on algae in test tubes (Table V), Haematococcus; assay type: cell-based; conditions: for cells/ml: 13 days after innoculation, average of 3 samples
Experimental: (§1) Another laboratory experiment was run to further substantiate the selective effect of one of the algaecides, potassium ricinoleate. Two species of blue-green algae, Lyngbya and Cylindrospermum, and three species of green algae, Chlorella, Haematococcus and Stigeoclonium and Tribonema, a yellow-green alga of the division Chrysophycophyta, were treated as follows: Twenty ml test tubes of sterile BBM culture solution were innoculated with each alga. All species of algae were evaluated with three groups, control, 2.5 ppm algaecide and 7.5 ppm algaecide. Each group was run with triplicate samples.
(§2) Controls were counted 6 days after innoculation, algaecide was added to the treatment groups seven days after innoculation and all test tubes were counted thirteen days after innoculation. The results are shown in Table V. After seven days, there was a 31% reduction in the Lyngbya cultures at 2.5 ppm algaecide and a 40% reduction at 7.5 ppm. After seven days, there was a 60% reduction in Cylindrospermum cultures at 2.5 ppm algaecide and a 72% reduction at 7.5 ppm. […] After thirteen days, there was a 55% reduction in numbers at both 2.5 ppm and 7.5 ppm. After twenty days there was a 27% reduction at both concentrations. […] They are, like blue-green algae, often associated with taste and odor problems.

Stigeoclonium = assay: Selective effect on algae in test tubes (Table V), Stigeoclonium; assay type: cell-based; conditions: for cells/ml: 13 days after innoculation, average of 3 samples
Experimental: as §1, §2

blue-green algae [1] = assay: Field Experiment I, catfish pond, blue-green algae; assay type: in vivo, blue-green algae (mainly Microcystis sp.); conditions: 10 ppm
Experimental: (§3) 1, 1980, to Mar. 19, 1981.
(§4) On July 30, 1980, most ponds had numbers of blue-green algae exceeding 2×10^6 cells/liter. These algae were predominantly Oscillatoria,Microcystis and Anacystis with smaller numbers of Nostoc, Anabaena and Lyngbya. The experimental pond had 1.2×10^6 cells/liter composed mainly of Microcystis sp. Large numbers of copepods and rotifers were present. On July 30, the pond was treated with 10 ppm potassium ricinoleate by distributing a 30% aqueous solution evenly through the water column by pump from a small boat. […] This is further substantiated by the dry weights and chlorophyll a levels.

green algae [2] = assay: Field Experiment I, catfish pond, green algae and other phytoplankton; assay type: in vivo; conditions: 10 ppm
Experimental: as §3, §4

Chlorophyll a = assay: Field Experiment I, chlorophyll a; assay type: in vivo; conditions: 10 ppm
Experimental: as §3, §4

blue-green algae [3] = assay: Field Experiment II, catfish pond, blue-green algae; assay type: in vivo, blue-green algae (Oscillatoria and Microcystis); conditions: 2 ppm
green algae [4] = assay: Field Experiment II, catfish pond, green algae; assay type: in vivo; conditions: 2 ppm
Fish (adult catfish) = assay: Field Experiment II, taste and odor of fish; assay type: in vivo; conditions: for Fish Odor / Fish Taste: 2 ppm on 5/26/81
[5] = Field Experiment II, taste and odor of water; assay type: in vivo; conditions: 2 ppm on 5/26/81
green algae [6] = assay: Field Experiment III, pond, green algae; assay type: in vivo; conditions: 2 ppm on 6/9/81
Experimental: (§5) In Field Experiment III, a small two acre pond was monitored for a complete year for plankton organisms as before. Oscillatoria and Microcystis were usually the prevalent blue-green algae. On 6/9/81 the pond was experiencing a bloom consisting completely of Oscillatoria. Channel catfish from the ponds had the characteristic earthy, musty taste and odor of 4 and 4 respectively on the 0 to 5 scale. The pond was treated on this date with 2 ppm potassium ricinoleate, one of the selective algaecides, as before.

zooplankton = assay: Field Experiment III, pond, zooplankton; assay type: in vivo; conditions: 2 ppm on 6/9/81
Experimental: as §5

Channel catfish = assay: Field Experiment III, taste and odor of channel catfish; assay type: in vivo; conditions: 2 ppm on 6/9/81; June 22
Experimental: as §5

Rhizochrysis = assay: Sewage treatment test 1, Rhizochrysis; conditions: six days after treatment
Experimental: Two experiments were performed on sewage to further illustrate the utility of these algaecides. In the first experiment, sewage containing mostly green algae was treated with relatively high concentrations of potassium ricinoleate.

[7] = test system: blue-green algae (Microcystis and Oscillatoria); assay: Sewage treatment test 2, dense bloom of blue-green algae; conditions: ten days after treatment
Text: Ten days after treatment aeration was stopped and cell debris was allowed to settle.

bluegill fingerlings = assay: Toxicity to bluegill fingerlings; assay type: in vivo; conditions: 5, 10, 15, 20, 30 and 35 ppm
Experimental: An additional experiment was conducted on live bluegill fingerlings at 5, 10, 15, 20, 30 and 35 ppm of the algaecide.

[8] = in vivo
[9] = 2.5 and 7.5 ppm, after seven days
[10] = 7/31 post-treatment (treated July 30, 1980)
[11] = 11/21 post-treatment (normal winter reduction)
[12] = 5/26/81 B post-treat, 4 p.m., Deep, prevalent Mic
[13] = 5/26/81 C post-treat, 4 p.m., Shallow, prevalent Ped
[14] = 5/27/81 D, 9:40 p.m., Deep, prevalent Ped
[15] = 5/27/81 E, 9:40 p.m., Shallow, prevalent Ped
[16] = 5/28/81 F, 7 a.m., prevalent Ped
[17] = 5/28/81 G, 11 a.m., prevalent Ped
[18] = scale 0 to 5 (5 worst, 0 undetectable), 6/1/81

CCCCCC[C@@H](O)C/C=C\CCCCCCCC(=O)[O-].[K+]
effect (Haematococcus; [9]): stimulated | cells/ml (Haematococcus; 2.5 ppm): 23000 cells/ml | cells/ml (Haematococcus; 7.5 ppm): 52000 cells/ml | effect (Stigeoclonium; [9]): remained unchanged | cells/ml (Stigeoclonium; 2.5 ppm): 1900 cells/ml | cells/ml (Stigeoclonium; 7.5 ppm): 1900 cells/ml | Cells/Liter of bluegreen algae (blue-green algae [1]; [10]): 3.2 × 10^5 Cells/Liter | Cells/Liter of bluegreen algae (blue-green algae [1]; 8/1 post-treatment): 1.8 × 10^5 Cells/Liter | Cells/Liter of bluegreen algae (blue-green algae [1]; 8/6 post-treatment): 1.0 × 10^5 Cells/Liter | Cells/Liter of bluegreen algae (blue-green algae [1]; 8/19 post-treatment): 5.4 × 10^5 Cells/Liter | Cells/Liter of bluegreen algae (blue-green algae [1]; 9/6 post-treatment): 3.8 × 10^5 Cells/Liter | Cells/Liter of bluegreen algae (blue-green algae [1]; 9/23 post-treatment): 1.9 × 10^6 Cells/Liter | Cells/Liter of bluegreen algae (blue-green algae [1]; [11]): 0 Cells/Liter | Cells/Liter of bluegreen algae (blue-green algae [1]; 12/14 post-treatment): 3.0 × 10^4 Cells/Liter | blue-green algae killed (blue-green algae [1]; seven days after treatment): 93% | Cells/Liter of green algae (green algae [2]; [10]): 6.2 × 10^4 Cells/Liter | Cells/Liter of green algae (green algae [2]; 8/1 post-treatment): 5.0 × 10^4 Cells/Liter | Cells/Liter of green algae (green algae [2]; 8/6 post-treatment): 2.1 × 10^4 Cells/Liter | Cells/Liter of green algae (green algae [2]; 8/19 post-treatment): 0 Cells/Liter | Cells/Liter of green algae (green algae [2]; 9/6 post-treatment): 1.7 × 10^4 Cells/Liter | Cells/Liter of green algae (green algae [2]; 9/23 post-treatment): 4.5 × 10^5 Cells/Liter | Cells/Liter of green algae (green algae [2]; [11]): 2.5 × 10^3 Cells/Liter | Cells/Liter of green algae (green algae [2]; 12/14 post-treatment): 0 Cells/Liter | numbers of other phytoplankton (green algae [2]; seven days after treatment): essentially unchanged or increased in numbers | Chlorophyll a (Chlorophyll a; [10]): .000 absorbance at 663 nm | Chlorophyll a (Chlorophyll a; 8/1 post-treatment): .064 absorbance at 663 nm | Chlorophyll a (Chlorophyll a; 8/6 post-treatment): .000 absorbance at 663 nm | Chlorophyll a (Chlorophyll a; 8/19 post-treatment): .002 absorbance at 663 nm | Chlorophyll a (Chlorophyll a; 9/6 post-treatment): .240 absorbance at 663 nm | Cells/liter bluegreen algae (blue-green algae [3]; [12]): 4.2 × 10^5 Cells/liter | Cells/liter bluegreen algae (blue-green algae [3]; [13]): 0 Cells/liter | Cells/liter bluegreen algae (blue-green algae [3]; [14]): 1.18 × 10^4 Cells/liter | Cells/liter bluegreen algae (blue-green algae [3]; [15]): 0 Cells/liter | Cells/liter bluegreen algae (blue-green algae [3]; [16]): 5.9 × 10^3 Cells/liter | Cells/liter bluegreen algae (blue-green algae [3]; [17]): 0 Cells/liter | blue-green algae after treatment (blue-green algae [3]; after two days): essentially no blue-green algae present | Cells/liter green algae (green algae [4]; [12]): 3.2 × 10^5 Cells/liter | Cells/liter green algae (green algae [4]; [13]): 2.0 × 10^5 Cells/liter | Cells/liter green algae (green algae [4]; [14]): 2.6 × 10^5 Cells/liter | Cells/liter green algae (green algae [4]; [15]): 1.09 × 10^5 Cells/liter | Cells/liter green algae (green algae [4]; [16]): 1.3 × 10^5 Cells/liter | Cells/liter green algae (green algae [4]; [17]): 1.1 × 10^5 Cells/liter | green algae after treatment (green algae [4]; through June, 1981): remained unchanged | Fish Odor (Fish (adult catfish); [18]): 2 | Fish Taste (Fish (adult catfish); [18]): 3 | Fish Odor (Fish (adult catfish); scale 0 to 5, 6/5/81): 1 | Fish Taste (Fish (adult catfish); scale 0 to 5, 6/5/81): 2 | Fish Odor (Fish (adult catfish); scale 0 to 5, 6/12/81): 1 | Fish Taste (Fish (adult catfish); scale 0 to 5, 6/12/81): 1 | Fish Odor (Fish (adult catfish); scale 0 to 5, 6/15/81): 0 | Fish Taste (Fish (adult catfish); scale 0 to 5, 6/15/81): 0 | earthy musty taste and odor of fish (Fish (adult catfish); 2 ppm, over a three week period): eliminated | Water Odor [5, 18]: 0 | Water Taste [5, 18]: 1 | Water Odor ([5]; scale 0 to 5, 6/5/81): 0 | Water Taste ([5]; scale 0 to 5, 6/5/81): 1 | Water Odor ([5]; scale 0 to 5, 6/12/81): 0 | Water Taste ([5]; scale 0 to 5, 6/12/81): 0 | Water Odor ([5]; scale 0 to 5, 6/15/81): 0 | Water Taste ([5]; scale 0 to 5, 6/15/81): 0 | Cells/liter green algae (green algae [6]; 6/10/81): 3.0 × 10^3 Cells/liter | Cells/liter green algae (green algae [6]; 6/12/81): 1.4 × 10^3 Cells/liter | Cells/liter green algae (green algae [6]; 6/22/81): 3.5 × 10^5 Cells/liter | Zoo #'s/liter (zooplankton; 6/10/81): 2251 #'s/liter | Zoo #'s/liter (zooplankton; 6/12/81): 4948 #'s/liter | Zoo #'s/liter (zooplankton; 6/22/81): 4541 #'s/liter | earthy, musty taste and odor of sample fish (Channel catfish): lost all of the earthy, musty taste and odor | presence of Rhizochrysis (Rhizochrysis): completely absent | cells/liter ([7]; 2.5 ppm): 8.3 × 10^5 cells/liter | cells/liter ([7]; 5.0 ppm): 7.9 × 10^5 cells/liter | cells/liter ([7]; 10.0 ppm): 6.6 × 10^5 cells/liter | cells/liter ([7]; 15.0 ppm): 4.4 × 10^5 cells/liter | state of enumerated suspended cells [7]: appeared dead | fish survival (bluegill fingerlings): All bluegills survived | oxygen depletion problems [8]: no oxygen depletion problems noted
